Test results from ChEMBL document CHEMBL1671668, “Is the recommended dose of efavirenz optimal in young West African human immunodeficiency virus-infected children?” (Antimicrob Agents Chemother, 2009).

Legend:
Homo sapiens [1] = experiment: AUC (0 to t) in HIV-1 infected children at 12 mg/kg, po administered once daily by HPLC; assay type: ADME, organism-based, Plasma; parameters: dose 12 mg/kg, route oral; conditions: in vivo
[2] = Cmax in HIV-1 infected children at 10 to 15 mg/kg, po administered once daily by HPLC; assay type: ADME, organism-based; parameters: dose 10-15 mg/kg, route oral; conditions: human, in vivo
[3] = Apparent oral clearance in HIV-1 infected children at 14.4 mg/kg, po administered once daily by HPLC; assay type: ADME, organism-based; parameters: dose 14.4 mg/kg, route oral; conditions: human, in vivo
Homo sapiens [4] = experiment: AUC (0 to t) in HIV-1 infected children at 10 to 15 mg/kg, po administered once daily by HPLC; assay type: ADME, organism-based, Plasma; parameters: dose 10-15 mg/kg, route oral; conditions: in vivo
[5] = Apparent oral clearance in HIV-1 infected children at 13.3 mg/kg, po administered once daily by HPLC; assay type: ADME, organism-based; parameters: dose 13.3 mg/kg, route oral; conditions: human, in vivo
Homo sapiens [6] = experiment: AUC (0 to t) in HIV-1 infected children at 14.4 mg/kg, po administered once daily by HPLC; assay type: ADME, organism-based, Plasma; parameters: dose 14.4 mg/kg, route oral; conditions: in vivo
[7] = Apparent oral clearance in HIV-1 infected children at 12 mg/kg, po administered once daily by HPLC; assay type: ADME, organism-based; parameters: dose 12 mg/kg, route oral; conditions: human, in vivo
[8] = test system: Human immunodeficiency virus 1; experiment: Antiviral activity against HIV1 infected in children assessed as decrease in viral burden at 14.4 mg/kg once daily measured after 3 months; assay type: functional
[9] = Cmax in HIV-1 infected children at 12 mg/kg, po administered once daily by HPLC; assay type: ADME, organism-based; parameters: dose 12 mg/kg, route oral; conditions: human, in vivo
[10] = Cmax in HIV-1 infected children at 14.4 mg/kg, po administered once daily by HPLC; assay type: ADME, organism-based; parameters: dose 14.4 mg/kg, route oral; conditions: human, in vivo

AUC (Homo sapiens [1]): 60000 ng·h/mL | Cmax [2]: 5520 ng/mL | CL/F [3]: 3.5 mL/min/kg | AUC (Homo sapiens [4]): 63600 ng·h/mL | CL/F [5]: 5 mL/min/kg | AUC (Homo sapiens [6]): 65200 ng·h/mL | CL/F [7]: 3.17 mL/min/kg | Cmax [9]: 4090 ng/mL | Cmax [10]: 3710 ng/mL
Compound: O=C1Nc2ccc(Cl)cc2[C@@](C#CC2CC2)(C(F)(F)F)O1 [EFAVIRENZ]
fold change (FC) [8]: 2.5
